Values of other authors, collected in patent US5183829A, “Oral liquid compositions of non-steroidal anti-inflammatory drugs” (priority 1991, dated 1993).

Conditions: enteric coated tablet vs aqueous solution

In the case of `O=C(O)Cc1ccccc1Nc1c(Cl)cccc1Cl` [sodium diclofenac], the oral bioavailability is listed as “more bioavailable orally from an enteric coated tablet than from an aqueous solution”.
